Assay results taken from PubChem BioAssay (NCI).
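Compound exposure: 48 hours, 5 concentrations, 96-well plates. TGI: total growth inhibition.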

Legend:
Assay in all cases: DTP human tumour cell line panel, 48 h
UACC-62 melanoma = system: UACC-62 melanoma
SNB-75 CNS = system: SNB-75 CNS
LXFL 529 NSCLC = system: LXFL 529 NSCLC
SN12C renal = system: SN12C renal
HOP-62 NSCLC = system: HOP-62 NSCLC
OVCAR-4 ovarian = system: OVCAR-4 ovarian
ACHN renal = system: ACHN renal
HT29 colon = system: HT29 colon
K-562 leukemia = system: K-562 leukemia
CCRF-CEM leukemia = system: CCRF-CEM leukemia
EKVX NSCLC = system: EKVX NSCLC
DLD-1 colon = system: DLD-1 colon
UACC-257 melanoma = system: UACC-257 melanoma
SF-539 CNS = system: SF-539 CNS
SK-OV-3 ovarian = system: SK-OV-3 ovarian
SK-MEL-28 melanoma = system: SK-MEL-28 melanoma
KM12 colon = system: KM12 colon
HCT-15 colon = system: HCT-15 colon
M19-MEL melanoma = system: M19-MEL melanoma
NCI-H460 lung = system: NCI-H460 lung
KM20L2 colon = system: KM20L2 colon
OVCAR-3 ovarian = system: OVCAR-3 ovarian
786-0 renal = system: 786-0 renal
A549 NSCLC = system: A549 NSCLC
HOP-92 NSCLC = system: HOP-92 NSCLC
NCI-H226 lung = system: NCI-H226 lung
HCC-2998 colon = system: HCC-2998 colon
SF-268 CNS = system: SF-268 CNS
TK-10 renal = system: TK-10 renal
LOX IMVI melanoma = system: LOX IMVI melanoma
RXF-631 renal = system: RXF-631 renal
HOP-18 NSCLC = system: HOP-18 NSCLC
SNB-19 CNS = system: SNB-19 CNS
SR leukemia = system: SR leukemia
UO-31 renal = system: UO-31 renal
NCI-H522 lung = system: NCI-H522 lung
SW-620 colon = system: SW-620 colon
M14 melanoma = system: M14 melanoma
HL-60(TB) leukemia = system: HL-60(TB) leukemia
CAKI-1 renal = system: CAKI-1 renal
MOLT-4 leukemia = system: MOLT-4 leukemia
IGROV1 ovarian = system: IGROV1 ovarian
A498 renal = system: A498 renal
SF-295 CNS = system: SF-295 CNS
MALME-3M melanoma = system: MALME-3M melanoma
OVCAR-8 ovarian = system: OVCAR-8 ovarian
HCT-116 colon = system: HCT-116 colon
SK-MEL-2 melanoma = system: SK-MEL-2 melanoma
OVCAR-5 ovarian = system: OVCAR-5 ovarian
U251 CNS = system: U251 CNS
COLO 205 colon = system: COLO 205 colon
RPMI-8226 leukemia = system: RPMI-8226 leukemia
NCI-H23 lung = system: NCI-H23 lung
SNB-78 CNS = system: SNB-78 CNS
DMS 114 small cell lung = system: DMS 114 small cell lung
SK-MEL-5 melanoma = system: SK-MEL-5 melanoma
RXF 393 renal = system: RXF 393 renal
MDA-MB-435 = system: MDA-MB-435
XF 498 CNS = system: XF 498 CNS
NCI/ADR-RES ovarian = system: NCI/ADR-RES ovarian
T-47D breast = system: T-47D breast
PC-3 prostate = system: PC-3 prostate
DMS 273 small cell lung = system: DMS 273 small cell lung
DU-145 prostate = system: DU-145 prostate
BT-549 breast = system: BT-549 breast
HS 578T breast = system: HS 578T breast
MDA-N = system: MDA-N
MCF7 breast = system: MCF7 breast
MDA-MB-231 breast = system: MDA-MB-231 breast

Measured: TGI

Cc1ccc(N=Nc2c(C)nn(-c3ccccc3)c2-c2ccccc2)c(Br)c1
not listed: OVCAR-5 ovarian | U251 CNS | COLO 205 colon | RPMI-8226 leukemia | NCI-H23 lung | SNB-78 CNS | DMS 114 small cell lung | SK-MEL-5 melanoma | RXF 393 renal | MDA-MB-435 | XF 498 CNS | NCI/ADR-RES ovarian | T-47D breast | PC-3 prostate | DMS 273 small cell lung | DU-145 prostate | BT-549 breast | HS 578T breast | MDA-N | MCF7 breast | MDA-MB-231 breast
> 100 µM: all other assays above

COc1ccc(N2C(=O)/C(=C/c3ccc(N(CCC#N)CCC#N)cc3C)N=C2/C=C\c2ccccc2)cc1
75 µM: UO-31 renal
60.7 µM: UACC-62 melanoma
40 µM: KM20L2 colon
56.9 µM: SF-539 CNS
69.6 µM: HOP-62 NSCLC
92 µM: COLO 205 colon
not listed: EKVX NSCLC | HCC-2998 colon | A498 renal | RXF 393 renal | MDA-MB-435 | XF 498 CNS | NCI/ADR-RES ovarian | T-47D breast | PC-3 prostate | DMS 273 small cell lung | DU-145 prostate | BT-549 breast | HS 578T breast | MDA-N | MCF7 breast | MDA-MB-231 breast
> 100 µM: all other assays above

CCc1ccccc1NC(=O)C1=C(C)NC(C)=C(C(=O)Nc2ccccc2CC)C1c1cccc([N+](=O)[O-])c1
88.7 µM: HL-60(TB) leukemia
97.8 µM: NCI-H522 lung
93.8 µM: A498 renal
62.8 µM: HOP-92 NSCLC
62 µM: HCC-2998 colon
not listed: UACC-62 melanoma | HCT-15 colon | HOP-18 NSCLC | SR leukemia | HCT-116 colon | MDA-MB-435 | XF 498 CNS | NCI/ADR-RES ovarian | T-47D breast | PC-3 prostate | DMS 273 small cell lung | DU-145 prostate | BT-549 breast | HS 578T breast | MDA-N | MCF7 breast | MDA-MB-231 breast
> 100 µM: all other assays above

S=C(S)N1CCOCC1
14.3 µM: HL-60(TB) leukemia
> 29.8 µM: SNB-75 CNS
5.22 µM: DLD-1 colon
> 63.9 µM: SK-MEL-5 melanoma
> 54.4 µM: A498 renal
> 53.2 µM: KM20L2 colon
24.9 µM: K-562 leukemia | HCT-116 colon
12.4 µM: M19-MEL melanoma
12.7 µM: RXF 393 renal
82.2 µM: SK-MEL-28 melanoma
> 29.6 µM: NCI-H460 lung
16.5 µM: SW-620 colon
9.89 µM: MOLT-4 leukemia
15 µM: UACC-62 melanoma
17.1 µM: HT29 colon
21.1 µM: DMS 273 small cell lung
14.8 µM: SR leukemia
> 34 µM: NCI-H23 lung | CAKI-1 renal
98.4 µM: M14 melanoma
> 31.1 µM: HCC-2998 colon
16 µM: XF 498 CNS
5.98 µM: COLO 205 colon
25.8 µM: U251 CNS
> 34.5 µM: OVCAR-4 ovarian
> 83.6 µM: SF-539 CNS
> 60.1 µM: HCT-15 colon
3.98 µM: NCI-H522 lung
> 64.2 µM: MALME-3M melanoma
> 41.4 µM: 786-0 renal
> 78.3 µM: LOX IMVI melanoma
4.42 µM: CCRF-CEM leukemia
0.904 µM: DMS 114 small cell lung
15.8 µM: OVCAR-3 ovarian
42.6 µM: RPMI-8226 leukemia
not listed: RXF-631 renal
> 100 µM: all other assays above
